What was measured:
[1] = system: sodium current in DRG neurons; conditions: co-applied with 1 μM capsaicin, whole-cell voltage clamp; read-out: in vitro apparent affinity (IC50) for blocking sodium current in DRG neurons; cited from earlier work
isolated detrusor muscle = assay: In vitro assay for effect of compounds on bladder detrusor muscle (EFS-induced contractions); parameters: species or system guinea-pigs; conditions: cumulative concentration-response

Structure (SMILES)	IC50 [1] [µM]	EFS-induced detrusor contractions (isolated detrusor muscle)
CC[N+](CC)(CC)CC(=O)Nc1c(C)cccc1C [QX-314]	30	–
CCN(CC)CC(=O)Nc1c(C)cccc1C [lidocaine]	–	concentration-dependent inhibitions of EFS-induced detrusor contractions

Reference: patent publication US9180115B2, “Cyclohexylamines” (Asana Biosciences, LLC, priority 2011, dated 2015)
